Assay results from patent publication US10070645B2, “N-cycloalkyl-N-{[2-(1-substitutedcycloalkyl)phenyl]methylene}-(thio)carboxamide derivatives” (BAYER CROPSCIENCE AKTIENGESELLSCHAFT, priority 2013, dated 2018).

Experiment: log P by HPLC on a reversed-phase column (C 18), EEC Directive 79/831 Annex V.A8
Format: physicochemical
Conditions: HPLC, reversed-phase column (C 18), 40° C., 0.1% aqueous formic acid and acetonitrile, linear gradient 10% to 90% acetonitrile
Description: In table 1, the log P values were determined in accordance with EEC Directive 79/831 Annex V.A8 by HPLC (High Performance Liquid Chromatography) on a reversed-phase column (C 18), using the method described below:
Temperature: 40° C.; Mobile phases: 0.1% aqueous formic acid and acetonitrile; linear gradient from 10% acetonitrile to 90% acetonitrile.
Calibration was carried out using unbranched alkan-2-ones (comprising 3 to 16 carbon atoms) with known log P values (determination of the log P values by the retention times using linear interpolation between two successive alkanones). lambda-max-values were determined using UV-spectra from 200 nm to 400 nm and the peak values of the chromatographic signals.

| chromatographic logP (reversed-phase HPLC column (C 18)) | logP | Compound |
| --- | --- | --- |
| 4.26 |  | Cn1nc(C(F)F)c(C(=O)N(Cc2cc(Cl)ccc2C2(C)CC2)C2CC2)c1F [I.060, N-[5-chloro-2-(1-methylcyclopropyl)benzyl]-N-cyclopropyl-3-(difluoromethyl)-5-fluoro-1-methyl-1H-pyrazole-4-carboxamide] |
|  | 4.44 | Cn1nc(C(F)F)c(C(=O)N(Cc2cc(Cl)ccc2C2(C)CC2)C2CC2)c1Cl [I.061] |
|  | 4.82 | Cn1nc(C(F)F)c(C(=S)N(Cc2cc(Cl)ccc2C2(C)CC2)C2CC2)c1F [I.062] |
|  | 5.03 | Cn1nc(C(F)F)c(C(=S)N(Cc2cc(Cl)ccc2C2(C)CC2)C2CC2)c1Cl [I.063] |
|  | 4.56 | Cn1nc(C(F)F)c(C(=O)N(Cc2cc(C3CC3)ccc2C2(C)CC2)C2CC2)c1F [I.064] |
|  | 4.56 | CCc1ccc(C2(C)CC2)c(CN(C(=O)c2c(C(F)F)nn(C)c2F)C2CC2)c1 [I.065] |
|  | 4.49 | Cn1nc(C(F)F)c(C(=S)N(Cc2cc(F)ccc2C2(C)CC2)C2CC2)c1F [I.068] |
|  | 4.64 | Cn1nc(C(F)F)c(C(=S)N(Cc2cc(F)ccc2C2(C)CC2)C2CC2)c1Cl [I.069] |
|  | 4.61 | CC(C)c1ccc(C2(C)CC2)c(CN(C(=O)c2c(C(F)F)nn(C)c2F)C2CC2)c1 [I.070] |
|  | 4.36 | Cc1ccc(C2(C)CC2)c(CN(C(=O)c2c(C(F)F)nn(C)c2Cl)C2CC2)c1 [I.072] |
|  | 4.80 | Cc1ccc(C2(C)CC2)c(CN(C(=S)c2c(C(F)F)nn(C)c2F)C2CC2)c1 [I.073] |
|  | 4.98 | Cc1ccc(C2(C)CC2)c(CN(C(=S)c2c(C(F)F)nn(C)c2Cl)C2CC2)c1 [I.074] |
|  | 4.51 | Cc1ccc(C2(C)CC2)c(CN(C(=O)c2c(C(F)F)nn(C)c2F)C2(C)CC2)c1 [I.075] |
|  | 3.73 | Cc1ccc(C2(C)CC2)c(CN(C(=O)c2c(C(F)F)nn(C)c2F)C2(C#N)CC2)c1 [I.076] |
|  | 4.63 | Cc1ccc(C2(C)CC2)c(CN(C(=O)c2c(C(F)F)nn(C)c2Cl)C2(C)CC2)c1 [I.077] |
|  | 3.87 | Cc1ccc(C2(C)CC2)c(CN(C(=O)c2c(C(F)F)nn(C)c2Cl)C2(C#N)CC2)c1 [I.078] |
|  | 4.34 | C=Cc1ccc(C2(C)CC2)c(CN(C(=O)c2c(C(F)F)nn(C)c2F)C2CC2)c1 [I.080] |
|  | 5.48 | Cn1nc(C(F)F)c(C(=O)N(Cc2cc(-c3csc4ccccc34)ccc2C2(C)CC2)C2CC2)c1F [I.081] |
|  | 5.00 | Cn1nc(C(F)F)c(C(=O)N(Cc2cc(-c3cn(C)c4ccccc34)ccc2C2(C)CC2)C2CC2)c1F [I.082] |
|  | 4.67 | C=C(C)c1ccc(C2(C)CC2)c(CN(C(=O)c2c(C(F)F)nn(C)c2F)C2CC2)c1 [I.083] |
|  | 4.24 | Cn1nc(C(F)F)c(C(=O)N(Cc2c(C3(C)CC3)ccc(Cl)c2F)C2CC2)c1F [I.084] |
|  | 4.51 | Cn1nc(C(F)F)c(C(=O)N(Cc2c(C3(C)CC3)ccc(Cl)c2Cl)C2CC2)c1F [I.085] |
|  | 4.51 | Cc1ccc(C2(C)CC2)c(CN(C(=O)c2c(C(F)F)nn(C)c2F)C2CC2)c1Cl [I.086] |
|  | 4.21 | Cc1ccc(C2(C)CC2)c(CN(C(=O)c2c(C(F)F)nn(C)c2F)C2CC2)c1F [I.087] |
|  | 4.46 | Cn1nc(C(F)F)c(C(=O)N(Cc2c(C(F)(F)F)cccc2C2(C)CC2)C2CC2)c1F [I.088] |
|  | 3.79 | Cn1nc(C(F)F)c(C(=O)N(Cc2c(F)cccc2C2(C)CC2)C2CC2)c1F [I.089] |

| chromatographic logP (reversed-phase HPLC column (C 18)) | logP | Compound |
| --- | --- | --- |
|  | 3.73 | C#CC1(c2ccc(Cl)cc2CN(C(=O)c2c(C(F)F)nn(C)c2F)C2CC2)CC1 [I.090] |
|  | 3.89 | C#CC1(c2ccc(Cl)cc2CN(C(=O)c2c(C(F)F)nn(C)c2Cl)C2CC2)CC1 [I.091] |
|  | 3.68 | C#CC1(c2ccc(C)cc2CN(C(=O)c2c(C(F)F)nn(C)c2F)C2CC2)CC1 [I.092] |
|  | 3.78 | C#CC1(c2ccc(C)cc2CN(C(=O)c2c(C(F)F)nn(C)c2Cl)C2CC2)CC1 [I.093] |
|  | 3.13 | Cn1nc(C(F)F)c(C(=O)N(Cc2cc(Cl)ccc2C2(C#N)CC2)C2CC2)c1F [I.094] |
|  | 3.31 | Cn1nc(C(F)F)c(C(=O)N(Cc2cc(Cl)ccc2C2(C#N)CC2)C2CC2)c1Cl [I.095] |
|  | 4.21 | CCC1(c2ccccc2CN(C(=O)c2c(C(F)F)nn(C)c2F)C2CC2)CC1 [I.096] |
|  | 4.34 | CCC1(c2ccccc2CN(C(=O)c2c(C(F)F)nn(C)c2Cl)C2CC2)CC1 [I.097] |
|  | 4.85 | CCC1(c2ccccc2CN(C(=S)c2c(C(F)F)nn(C)c2F)C2CC2)CC1 [I.098] |
|  | 5.00 | CCC1(c2ccccc2CN(C(=S)c2c(C(F)F)nn(C)c2Cl)C2CC2)CC1 [I.099] |
|  | 4.75 | CCC1(c2cc(C(F)(F)F)ccc2CN(C(=O)c2c(C(F)F)nn(C)c2F)C2CC2)CC1 [I.100] |
|  | 4.86 | CCC1(c2cc(C(F)(F)F)ccc2CN(C(=O)c2c(C(F)F)nn(C)c2Cl)C2CC2)CC1 [I.101] |
|  | 4.67 | CCC1(c2cc(Cl)ccc2CN(C(=O)c2c(C(F)F)nn(C)c2F)C2CC2)CC1 [I.102] |
|  | 4.82 | CCC1(c2cc(Cl)ccc2CN(C(=O)c2c(C(F)F)nn(C)c2Cl)C2CC2)CC1 [I.103] |
|  | 4.59 | CCC1(c2cc(C)ccc2CN(C(=O)c2c(C(F)F)nn(C)c2F)C2CC2)CC1 [I.104] |
|  | 4.74 | CCC1(c2cc(C)ccc2CN(C(=O)c2c(C(F)F)nn(C)c2Cl)C2CC2)CC1 [I.105] |
|  | 4.85 | CCC1(c2cc(C)c(F)cc2CN(C(=O)c2c(C(F)F)nn(C)c2Cl)C2CC2)CC1 [I.107] |
|  | 4.67 | CCC1(c2ccc(C(F)(F)F)cc2CN(C(=O)c2c(C(F)F)nn(C)c2F)C2CC2)CC1 [I.108] |
|  | 4.85 | CCC1(c2ccc(C(F)(F)F)cc2CN(C(=O)c2c(C(F)F)nn(C)c2Cl)C2CC2)CC1 [I.109] |
|  | 4.77 | CCC1(c2ccc(Cl)cc2CN(C(=O)c2c(C(F)F)nn(C)c2Cl)C2CC2)CC1 [I.111] |
|  | 4.77 | CCC1(c2ccc(C)cc2CN(C(=O)c2c(C(F)F)nn(C)c2Cl)C2CC2)CC1 [I.112] |
|  | 4.61 | CCC1(c2ccc(C)cc2CN(C(=O)c2c(C(F)F)nn(C)c2F)C2CC2)CC1 [I.113] |
|  | 4.19 | CCC1(c2cccc(F)c2CN(C(=O)c2c(C(F)F)nn(C)c2F)C2CC2)CC1 [I.114] |
|  | 4.34 | CCC1(c2cccc(F)c2CN(C(=O)c2c(C(F)F)nn(C)c2Cl)C2CC2)CC1 [I.115] |
|  | 3.27 | COC1(c2ccccc2CN(C(=O)c2c(C(F)F)nn(C)c2F)C2CC2)CC1 [I.116] |
|  | 3.42 | COC1(c2ccccc2CN(C(=O)c2c(C(F)F)nn(C)c2Cl)C2CC2)CC1 [I.117] |

| chromatographic logP (reversed-phase HPLC column (C 18)) | logP | Compound |
| --- | --- | --- |
|  | 3.67 | COC1(c2ccc(Cl)cc2CN(C(=O)c2c(C(F)F)nn(C)c2F)C2CC2)CC1 [I.118] |
|  | 3.87 | COC1(c2ccc(Cl)cc2CN(C(=O)c2c(C(F)F)nn(C)c2Cl)C2CC2)CC1 [I.119] |
|  | 4.29 | COC1(c2ccc(C(C)C)cc2CN(C(=O)c2c(C(F)F)nn(C)c2F)C2CC2)CC1 [I.121] |
|  | 3.57 | COC1(c2ccc(C)cc2CN(C(=O)c2c(C(F)F)nn(C)c2F)C2CC2)CC1 [I.122] |
|  | 3.74 | COC1(c2ccc(C)cc2CN(C(=O)c2c(C(F)F)nn(C)c2Cl)C2CC2)CC1 [I.123] |
|  | 3.55 | COC1(c2ccc(C3=CCOCC3)cc2CN(C(=O)c2c(C(F)F)nn(C)c2F)C2CC2)CC1 [I.124] |
|  | 3.80 | COC1(c2ccc(-c3ccoc3)cc2CN(C(=O)c2c(C(F)F)nn(C)c2F)C2CC2)CC1 [I.125] |
|  | 4.76 | COC1(c2ccc(C3=CCCC3)cc2CN(C(=O)c2c(C(F)F)nn(C)c2F)C2CC2)CC1 [I.126] |
|  | 4.12 | C=C(C)c1ccc(C2(OC)CC2)c(CN(C(=O)c2c(C(F)F)nn(C)c2F)C2CC2)c1 [I.127] |
|  | 5.14 | CCCC1(c2cc(Cl)ccc2CN(C(=O)c2c(C(F)F)nn(C)c2F)C2CC2)CC1 [I.128] |
|  | 5.31 | CCCC1(c2cc(Cl)ccc2CN(C(=O)c2c(C(F)F)nn(C)c2Cl)C2CC2)CC1 [I.129] |
|  | 5.03 | CCCC1(c2ccc(C)cc2CN(C(=O)c2c(C(F)F)nn(C)c2F)C2CC2)CC1 [I.130] |
|  | 5.19 | CCCC1(c2ccc(C)cc2CN(C(=O)c2c(C(F)F)nn(C)c2Cl)C2CC2)CC1 [I.131] |
|  | 3.89 | Cc1ccc(C2(Cl)CC2)c(CN(C(=O)c2c(C(F)F)nn(C)c2F)C2CC2)c1 [I.132] |
|  | 4.06 | Cc1ccc(C2(Cl)CC2)c(CN(C(=O)c2c(C(F)F)nn(C)c2Cl)C2CC2)c1 [I.133] |
|  | 4.59 | Cc1ccc(C2(C3CC3)CC2)c(CN(C(=O)c2c(C(F)F)nn(C)c2F)C2CC2)c1 [I.134] |
|  | 4.72 | Cc1ccc(C2(C3CC3)CC2)c(CN(C(=O)c2c(C(F)F)nn(C)c2Cl)C2CC2)c1 [I.135] |
|  | 5.11 | Cc1ccc(C2(C(C)C)CC2)c(CN(C(=O)c2c(C(F)F)nn(C)c2Cl)C2CC2)c1 [I.136] |
|  | 4.95 | Cc1ccc(C2(C(C)C)CC2)c(CN(C(=O)c2c(C(F)F)nn(C)c2F)C2CC2)c1 [I.137] |
|  | 4.21 | CCOC1(c2ccc(C)cc2CN(C(=O)c2c(C(F)F)nn(C)c2Cl)C2CC2)CC1 [I.138] |
|  | 4.06 | CCOC1(c2ccc(C)cc2CN(C(=O)c2c(C(F)F)nn(C)c2F)C2CC2)CC1 [I.139] |
|  | 4.58 | Cc1ccc(C2(C)CC2Cl)c(CN(C(=O)c2c(C(F)F)nn(C)c2F)C2CC2)c1Cl (centres unmarked) [I.140] |
|  | 4.46 | Cn1nc(C(F)F)c(C(=O)N(Cc2c(C(F)(F)F)cccc2C2(C)CC2Cl)C2CC2)c1F (centres unmarked) [I.141] |
|  | 3.33 | Cn1nc(C(F)F)c(C(=O)N(Cc2ccccc2C2(C(F)F)CC2)C2CC2)c1F [I.142] |
|  | 3.46 | Cn1nc(C(F)F)c(C(=O)N(Cc2ccccc2C2(C(F)F)CC2)C2CC2)c1Cl [I.143] |
